Laboratory results as given in patent publication EP0939084A1, “An estrogen binding proteinaceous substance, its possible role in estrogen action, and potential use” (Rao, Ramanath B., priority 1998, dated 1999).
“Also recorded” adds a separate entry of the source. Read-outs that look alike come from different tables or passages of the source. Each block holds one compound with its values, some of them ahead of it.

What was measured:
type II ER = conditions: literature (40-41,43); cited from earlier work
[1] = system: estrogen binding protein (EBP), 84 kD heterodimer, mouse fetal liver; assay: Competition for / modulation of ^3H-estradiol-17β binding to EBP (charcoal assay); conditions: for inhibition of / influence on ^3H-estradiol-17β binding to EBP: competitor concentration not stated
Method: (§1) In brief, the procedure is as follows. […] Simultaneously tubes in duplicate without any added protein sample were set up as control. At the end of the incubation the tubes were put in an ice bath for 15 minutes to cool to the ice bath temperature. 0.5 ml of charcoal solution (0.05% heat activated charcoal plus 0.05% bovine serum albumin in tris buffer) was added, mixed and incubated further for 10 minutes. The tubes were then centrifuged at 2500 rpm for 15 minutes at 4°C to pellet the charcoal. 0.5 ml from each tube was carefully withdrawn without disturbing the charcoal pellet at the bottom of the tube and the radioactivity was measured following mixing with the scintillation cocktail. The net protein bound radioactivity was calculated after deducting the background counts based on the tubes without any added protein.

[2] = system: estrogen binding protein (EBP), 84 kD heterodimer, mouse fetal liver; assay: Sucrose density gradient centrifugation of EBP incubated with ^3H-estradiol-17β and competitor; conditions: ^3H-estradiol-17β 0.85 pmol + dimethylbenzanthracene 0.42 nmol or 1.2 nmol; Fig. 17
From the text: In the light of the above information attempts were made to analyse whether some of the known pollutants and carcinogens (1-OH, 3-OH, 8-OH, 10-OH benzo(a)pyrene, […]) compete in vitro with ^3H-estradiol-17β for binding site on EBP. […] Since benzo(a)pyrene is a known carcinogen it will be important to determine whether there is a structural relationship between estradiol-17β and the various hydroxy benzo(a)pyrenes. […] It is well known that DMBA is a potent carcinogen and as such it has been extensively used to induce estrogen dependent mammary and endometrial cancers in animals. […] However, this agent is still utilized to coat common plastics of daily use. […] Establishment of a correlationship between the in vitro and in vivo potency of such compounds will provide a rapid in vitro screening assay. Most importantly, such information for the first time will delineate a definitive role for an estrogen binder such as EBP in carcinogenesis and may also enable to explain why compounds such as DMBA induce tumors in estrogen responsive tissues as well as why the tumors are estrogen dependent.

[3] = system: estrogen binding protein (EBP), 84 kD heterodimer, mouse fetal liver
Method: as §1

SMILES: O[C@H](CS)[C@H](O)CS (racemic) [DTT, dithiotreitol]
sensitivity of type II ER estrogen binding to DTT (type II ER): highly sensitive

SMILES: CC/C(=C(\c1ccc(O)cc1)c1ccc(OCCN(C)C)cc1)c1ccccc1 [4-hydroxytamoxifen]
inhibition of / influence on ^3H-estradiol-17β binding to EBP [1]: no significant inhibitory effect

SMILES: Cc1c2ccccc2c(C)c2c1ccc1ccccc12 [DMBA, 7,12-dimethylbenzanthracene]
inhibition of ^3H-estradiol-17β binding (sucrose gradient centrifugation) [2]: inhibition

SMILES: CC/C(=C(\c1ccccc1)c1ccc(OCCN(C)C)cc1)c1ccccc1 [Tamoxifen]
inhibition of / influence on ^3H-estradiol-17β binding to EBP [1]: no significant inhibitory effect

SMILES: CC/C(=C(/CC)c1ccc(O)cc1)c1ccc(O)cc1 [diethylstilbestrol]
binding of the radiolabelled compound to EBP [3]: does not bind; also recorded: most estrogens no Des binding no competition (prog, androgen, corticoids)

influence on ^3H-estradiol-17β binding to EBP ([1]; both at low and high molarity): did not significantly influence
inhibition of / influence on ^3H-estradiol-17β binding to EBP [1]: did not influence
binding of the radiolabelled compound to EBP ([3]; radiolabelled ligand): no binding
SMILES: NCCc1ccc(O)c(O)c1 [dopamine]

inhibition of ^3H-estradiol-17β binding to EBP ([1]; competitor at 300-fold the concentration of the radiolabelled estrogen): no inhibitory effect
SMILES: C[C@]12CC[C@@H]3c4ccc(O)cc4CC[C@H]3[C@@H]1CC[C@H]2O [estradiol-17α]

relative binding activities of the competing estrogens ([1]; calculated at the 50% reduction level, compared to non-labelled estradiol-17β competing potency): 37%
inhibition of / influence on ^3H-estradiol-17β binding to EBP [1]: significantly inhibited
SMILES: C[C@]12CC[C@@H]3c4ccc(O)cc4CC[C@H]3[C@@H]1C[C@@H](O)[C@@H]2O [estriol]
